Activity and inhibition data for one compound are collected here from ChEMBL document CHEMBL4152207, “Discovery of potent and selective BRD4 inhibitors capable of blocking TLR3-induced acute airway inflammation” (Eur J Med Chem, 2018).

Series [1] concerns Mus musculus. Put plainly: Toxicity in mouse assessed as effect on body weight at 1 to 50 mg/kg, ip dosed daily for 1 month. Type of series: organism-based. Particulars: in vivo.
The test system of series [2] is Mus musculus. Nature of the series: Toxicity in mouse assessed as effect on WBC levels at 1 to 50 mg/kg, ip dosed daily for 1 month. Type of series: organism-based. Particulars: in vivo.
Series [3] addresses Endothelin-1 receptor (Homo sapiens) (UniProt P25101). Nature of the series: Displacement of [125I]endothelin-1 from human recombinant endothelin ETA receptor at 10 uM after 120 mins by scintillation counting analysis relative to control.
Series [4] has as its target MAO-A (amine oxidase [flavin-containing] A) (Rattus norvegicus, UniProt P21396). Put plainly: Displacement of [3H]Ro 41-1049 from rat MAO-A at 10 uM after 120 mins by scintillation counting analysis relative to control. The following applies: probe [3H]Ro 41-1049, read-out: Activity.
The species named for a further series is Cavia porcellus. Nature of the series: Binding affinity to guinea pig Sodium channel site 2 at 10 uM by antagonist radioligand assay relative to control. On the set-up: scale not given: the % may be the effect or the level left.
For series [5], the system named is Mus musculus. Put plainly: Pulmonary toxicity in mouse at 1 to 50 mg/kg, ip dosed daily for 1 month by histological analysis. The following applies: in vivo. The class given is organism-based.

Chain of Endothelin-1 receptor (Homo sapiens) (P25101 whole entry): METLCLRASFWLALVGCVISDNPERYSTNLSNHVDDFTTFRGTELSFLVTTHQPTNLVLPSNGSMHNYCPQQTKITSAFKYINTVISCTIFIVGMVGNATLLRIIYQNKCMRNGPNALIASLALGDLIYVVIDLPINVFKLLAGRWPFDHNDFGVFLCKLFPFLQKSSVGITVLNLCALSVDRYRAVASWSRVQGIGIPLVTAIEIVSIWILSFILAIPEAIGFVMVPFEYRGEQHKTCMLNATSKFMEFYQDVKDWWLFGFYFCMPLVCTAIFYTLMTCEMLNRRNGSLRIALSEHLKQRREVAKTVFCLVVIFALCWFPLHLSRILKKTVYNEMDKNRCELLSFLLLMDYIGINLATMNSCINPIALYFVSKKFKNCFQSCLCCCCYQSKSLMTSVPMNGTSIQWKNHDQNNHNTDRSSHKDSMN
Chain of MAO-A (amine oxidase [flavin-containing] A) (P21396 whole entry): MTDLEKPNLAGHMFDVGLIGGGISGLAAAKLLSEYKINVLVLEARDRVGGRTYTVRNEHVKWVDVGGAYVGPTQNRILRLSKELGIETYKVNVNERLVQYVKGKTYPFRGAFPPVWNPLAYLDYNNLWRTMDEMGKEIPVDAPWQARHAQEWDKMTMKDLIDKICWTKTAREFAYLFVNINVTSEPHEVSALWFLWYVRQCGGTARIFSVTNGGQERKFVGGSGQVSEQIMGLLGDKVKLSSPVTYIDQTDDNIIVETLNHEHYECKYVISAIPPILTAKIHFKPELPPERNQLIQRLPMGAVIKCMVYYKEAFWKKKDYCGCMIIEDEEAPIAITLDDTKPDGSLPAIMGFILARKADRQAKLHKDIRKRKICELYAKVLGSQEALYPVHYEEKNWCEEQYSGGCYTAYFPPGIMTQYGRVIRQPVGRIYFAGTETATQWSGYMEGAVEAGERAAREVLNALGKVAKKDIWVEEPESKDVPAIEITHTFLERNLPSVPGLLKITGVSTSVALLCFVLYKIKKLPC

On to `Cc1cc(/N=N/c2ccc(S(=O)(=O)NC3CCCC3)cc2)c(N)cc1O`, for which the Activity result in the series with Mus musculus [1] was “Non-Toxic”; in the series with Mus musculus [2] it was “Non-Toxic”; in series [3] it was -4.3%; in the series filed under Cavia porcellus, 27.7%; in the series with Mus musculus [5] it was “Non-Toxic”. Besides, in series [4], the inhibition at 2 h, 10 µM stood at 49.8%.
